From patent publication US20020132776A1, “Inhibitors of transglutaminase” (N-Zyme Biotech GmbH, priority 2000, published 2002)
Where a SMILES comes first, the peptide text is derived from it. The star is where a group is joined. Cbz = O=C(OCc1ccccc1)*; ClAc = O=C(CCl)*; For = O=C*

What was measured:
Assay type in all cases: biochemical
[1] = molecular target: T1, guinea pig liver transglutaminase (Cavia cutleri, UniProt P08587); assay: Inhibition of tissue transglutaminase, hydroxamate assay (Example 29); details: 20 min preincubation at 37° C., first block r5-r22
T1 sequence (P08587 1-690): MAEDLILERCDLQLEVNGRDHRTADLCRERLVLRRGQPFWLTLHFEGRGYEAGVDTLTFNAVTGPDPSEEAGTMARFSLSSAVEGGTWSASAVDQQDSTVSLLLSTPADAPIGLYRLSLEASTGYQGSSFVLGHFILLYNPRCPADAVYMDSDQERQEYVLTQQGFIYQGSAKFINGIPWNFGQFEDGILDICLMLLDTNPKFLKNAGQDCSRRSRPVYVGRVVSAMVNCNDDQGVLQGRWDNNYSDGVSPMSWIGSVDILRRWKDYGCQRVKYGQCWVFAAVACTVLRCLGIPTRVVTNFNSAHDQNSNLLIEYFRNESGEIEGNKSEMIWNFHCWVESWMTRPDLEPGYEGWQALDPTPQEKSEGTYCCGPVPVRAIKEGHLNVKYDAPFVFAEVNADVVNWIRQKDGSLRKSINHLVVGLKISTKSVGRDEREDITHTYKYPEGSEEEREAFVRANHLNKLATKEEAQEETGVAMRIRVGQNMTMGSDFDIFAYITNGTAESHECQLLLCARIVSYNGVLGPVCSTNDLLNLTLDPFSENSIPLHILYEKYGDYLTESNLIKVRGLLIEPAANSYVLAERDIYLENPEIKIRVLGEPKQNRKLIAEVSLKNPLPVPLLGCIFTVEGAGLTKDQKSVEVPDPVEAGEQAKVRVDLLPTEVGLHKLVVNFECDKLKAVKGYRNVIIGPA
Protocol: The inhibitors are dissolved in dimethyl sulfoxide (DMSO) at a concentration of 100 mM. Solutions having a concentration of 10 mM, 1 mM and 0.1 mM are prepared by dilution with transglutaminase buffer (50 mM Tris-HCl, pH 7.0, 5 mM CaCl2, 2 mM DTT).
Afterwards, inhibition takes place by incubation (20 minutes at 37° C.) of 25 μL of a transglutaminase solution (bacterial transglutaminase or guinea pig liver transglutaminase, respectively) with 25 μL of the respective inhibitor solution. Immediately after the incubation has finished, 100 μL of substrate solution (0.1 mM hydroxylamine, 30 mM CBZ-Gln-Gly-OH, 2 mM DTT, 5 mM CaCl2 in 50 mM Tris-HCl, pH 7.0) are added and it is incubated for 10 minutes at 37° C. The reaction is stopped with 100 μL of a solution of 4% (w/v) HCl, 1.7% (w/v) FeCl3 and 4% (w/v) trichloroacetic acid [see Grossowicz et al., J. Biol. Chem. 187, 111-125, 1950]. After centrifugation (10 minutes, 10,000× g) the extinction of the supernatant solution at 492 nm in the microtiter plate reader and, thus, the remaining activity of the transglutaminase is determined.

[2] = molecular target: T1, guinea pig liver transglutaminase; assay: Guinea pig liver transglutaminase, incorporation of hydroxylamine into CBZ-Gln-Gly (Example 31); details: 0-10 μM inhibitor, 15 min at 25° C.
Protocol: The inhibitor tests were carried out in analogy to the factor XIII test in microtiter plates. In this case, the incorporation of hydroxylamine into carbobenzoxy-L-glutaminylglycine (CBZ-Gln-Gly) was investigated [modified method of Grossowicz et al., J. Biol. Chem., 187, 111 -125 (1950)].
25 μl (0-10 μM) of inhibitor were added to 25 μl (5.0 U/ml) of guinea pig liver transglutaminase (Sigma) and incubated at 25° C. for 15 min. Then 100 μl of 0.2 M tris-acetate buffer, pH 6.0, with 30 mm CBZ-Gln-Gly, 0.1 M hydroxylamine and 10 mM glutathione were pipetted in. After 10 min at 37° C., the absorption at 492 nm was measured using a microtiter plate reader.

factor XIIIa = molecular target: T2, factor XIIIa (Homo sapiens, UniProt P00488); assay: Factor XIIIa fibrin coagulation/crosslinking inhibitor test (Example 31); details: inhibitor concentration range 0 to 10 μm; absorption of clots at 405 nm
T2 sequence (P00488 39-732 limits assumed): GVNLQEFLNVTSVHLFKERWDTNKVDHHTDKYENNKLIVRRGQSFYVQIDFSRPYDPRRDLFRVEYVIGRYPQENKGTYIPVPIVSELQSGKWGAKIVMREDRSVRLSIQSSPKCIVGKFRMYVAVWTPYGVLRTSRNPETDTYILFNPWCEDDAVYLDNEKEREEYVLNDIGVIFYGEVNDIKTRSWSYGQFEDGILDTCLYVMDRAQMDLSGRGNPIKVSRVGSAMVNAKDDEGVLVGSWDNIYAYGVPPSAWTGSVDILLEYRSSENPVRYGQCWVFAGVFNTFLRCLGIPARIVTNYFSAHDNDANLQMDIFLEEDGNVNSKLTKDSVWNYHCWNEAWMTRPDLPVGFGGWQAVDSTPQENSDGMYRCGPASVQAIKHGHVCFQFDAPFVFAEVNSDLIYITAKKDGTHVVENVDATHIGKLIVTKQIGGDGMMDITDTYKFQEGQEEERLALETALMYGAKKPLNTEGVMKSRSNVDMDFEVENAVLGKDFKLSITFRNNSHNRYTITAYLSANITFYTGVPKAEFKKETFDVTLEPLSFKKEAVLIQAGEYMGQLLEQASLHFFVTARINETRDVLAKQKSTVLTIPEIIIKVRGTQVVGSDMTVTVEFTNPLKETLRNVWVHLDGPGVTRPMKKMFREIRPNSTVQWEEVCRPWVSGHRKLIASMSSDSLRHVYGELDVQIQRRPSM
Protocol: The inhibitor tests were carried out in microtiter plates (0.2 ml). This entailed examination of the ability of the plasma transglutaminase to catalyze the coagulation of fibrin with and without inhibitor [modified method of Tymiak et al., J. Antibiot., 46, 204-206 (1993)].
40 μl of bovine fibrinogen (3 mg/ml, Sigma) in 25 mm Tris-HCl with 100 mm NaCl and 2.5 mm Ca^2+, pH 7.5, were incubated with 2 U/ml bovine thrombin (Sigma) at 25° C. for 10 min.
In a second mixture in parallel therewith, likewise 2 U/ml bovine thrombin (Sigma) were added to 20 μg/ml FXIII in 25 mm Tris-HCl with 100 mm NaCl and 2.5 mm Ca^2+, pH 7.5, and incubated at 25° C. for 10 min. The γ-aldehyde inhibitor concentration was then adjusted so that the measurements covered a concentration range from 0 to 10 μm. The reaction mixture was incubated at 25° C. for 15 min.
The two mixtures were combined and, after an incubation at 30° C. for 15 min, 150 μl of urea (8 M) were added. The absorption of the clots was measured at 405 nm.

Compound	Inhibition of tissue transglutaminase at an inhibitor concentration of 0.05 mM ([1]; 0.05 mM inhibitor) [%]	Inhibition of tissue transglutaminase at an inhibitor concentration of 0.5 mM ([1]; 0.5 mM inhibitor) [%]	Inhibition of tissue transglutaminase at an inhibitor concentration of 5 mM ([1]; 5 mM inhibitor) [%]	further results
O=C(O)CNC(=O)[C@H](COC(=O)CCl)NC(=O)OCc1ccccc1 [Carbobenzoxy-L-serylglycine β-Chloroacetate] (Cbz-Ser(ClAc)-Gly-OH)	1	43	91	
CC(=O)OC[C@H](NC(=O)OCc1ccccc1)C(=O)NCC(=O)O [Carbobenzoxy-L-serylglycine β-acetate, Carbobenzoxy-L-serylqlycine β-acetate] (Cbz-Ser(Ac)-Gly-OH)	0	0	0	
O=COC[C@H](NC(=O)OCc1ccccc1)C(=O)NCC(=O)O [Carbobenzoxy-L-serylglycine β-formate, Carbobenzoxy-L-serylglycine β-Formate] (Cbz-Ser(For)-Gly-OH)	0	0	56	
CC(C)(C)OC(=O)CNC(=O)[C@H](CNC(N)=O)NC(=O)OCc1ccccc1 [Carbobenzoxy-β-(N-carbamoyl)-L-aminoalanylglycine tert-butyl Ester]	0	0	0	
CCOC(=O)CNC(=O)[C@H](COC(C)=O)NC(=O)OCc1ccccc1 [Carbobenzoxy-β-(O-acetyl)-L-serylglycine Ethyl Ester] (Cbz-Ser(Ac)-Gly-OEt)	0	0	0	
CCOC(=O)CNC(=O)[C@H](COC(=O)CCl)NC(=O)OCc1ccccc1 [Carbobenzoxy-β-(O-chloroacetyl)-L-serylglycine Ethyl Ester] (Cbz-Ser(ClAc)-Gly-OEt)	2	7	76	
CCOC(=O)CNC(=O)[C@H](COC=O)NC(=O)OCc1ccccc1 [Carbobenzoxy-β-(O-formyl)-L-serylglycine Ethyl Ester] (Cbz-Ser(For)-Gly-OEt)	0	0	0	
NC(=O)NC[C@H](NC(=O)OCc1ccccc1)C(=O)NCC(=O)O [Carbobenzoxy-β-ureido-L-alanylglycine]				inhibition at 50 µM ([1]; 0.05 mM inhibitor, read-out: Inhibition of tissue transglutaminase at an inhibitor concentration of 0.05 mM): 0%; inhibition at 500 µM ([1]; 0.5 mM inhibitor, read-out: Inhibition of tissue transglutaminase at an inhibitor concentration of 0.5 mM): 0%; inhibition at 5000 µM ([1]; 5 mM inhibitor, read-out: Inhibition of tissue transglutaminase at an inhibitor concentration of 5 mM): 35%
O=CCC[C@H](NC(=O)OCc1ccccc1)C(=O)NCC(=O)O [γ-Aldehyde of carbobenzoxy-L-glutamylglycine]				Inhibitor concentration at which guinea pig liver transglutaminase is inhibited [2]: 1 µM; Inhibition of factor XIIIa (fibrin crosslinking) (factor XIIIa): cannot be inhibited
Carbobenzoxy-β-(O-carbamoyl)-L-serylglycine Ethyl Ester	0	0	0	
γ-Aldehyde of tert-butyloxycarbonyl-L-glutaminyl-L-glutaminyl-L-isoleucyl-L-valine				Inhibition of factor XIIIa (fibrin crosslinking) (factor XIIIa): effective factor XIIIa inhibitor
